Laboratory results published in PubChem BioAssay (NCI).
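Where inhibition never reached the appropriate level, the endpoint shown equals the highest concentration tested. Otherwise, values were interpolated linearly from a five-concentration, 48-hour dose response in 96-well plates. TGI denotes the concentration required for complete inhibition of growth.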

Columns and labels:
Test in all cases: growth of human tumour cells (NCI), 48 h
[1] = test system: HS 578T breast
[2] = test system: SK-MEL-2 melanoma
[3] = test system: T-47D breast
[4] = test system: SF-295 CNS
[5] = test system: 786-0 renal
[6] = test system: SNB-75 CNS
[7] = test system: SF-539 CNS
[8] = test system: IGROV1 ovarian
[9] = test system: OVCAR-3 ovarian
[10] = test system: U251 CNS
[11] = test system: ACHN renal
[12] = test system: MDA-MB-435
[13] = test system: PC-3 prostate
[14] = test system: NCI-H522 lung
[15] = test system: TK-10 renal
[16] = test system: KM12 colon
[17] = test system: EKVX NSCLC
[18] = test system: MCF7 breast
[19] = test system: SK-OV-3 ovarian
[20] = test system: A498 renal
[21] = test system: SW-620 colon
[22] = test system: RXF 393 renal
[23] = test system: OVCAR-4 ovarian
[24] = test system: MDA-N
[25] = test system: SK-MEL-28 melanoma
[26] = test system: SF-268 CNS
[27] = test system: HCC-2998 colon
[28] = test system: LOX IMVI melanoma
[29] = test system: UACC-62 melanoma
[30] = test system: NCI-H226 lung
[31] = test system: NCI/ADR-RES ovarian
[32] = test system: M14 melanoma
[33] = test system: K-562 leukemia
[34] = test system: NCI-H23 lung
[35] = test system: HOP-62 NSCLC
[36] = test system: HCT-116 colon
[37] = test system: HOP-92 NSCLC
[38] = test system: MDA-MB-231 breast
[39] = test system: BT-549 breast
[40] = test system: OVCAR-5 ovarian
[41] = test system: MOLT-4 leukemia
[42] = test system: COLO 205 colon
[43] = test system: SR leukemia
[44] = test system: HT29 colon
[45] = test system: RPMI-8226 leukemia
[46] = test system: OVCAR-8 ovarian
[47] = test system: SN12C renal
[48] = test system: UACC-257 melanoma
[49] = test system: SK-MEL-5 melanoma
[50] = test system: CAKI-1 renal
[51] = test system: UO-31 renal
[52] = test system: DU-145 prostate
[53] = test system: SNB-19 CNS
[54] = test system: MALME-3M melanoma
[55] = test system: HCT-15 colon
[56] = test system: HL-60(TB) leukemia
[57] = test system: A549 NSCLC
[58] = test system: CCRF-CEM leukemia
[59] = test system: NCI-H460 lung

In the case of `COc1cccc(C2c3cc4c(cc3OC(C)(N3CCCC3)C2C)OCO4)c1O` (centres undefined), the TGI [1] is reported as 5.59 µM, the TGI [2] is reported as > 23.5 µM and the TGI [3] is reported as > 100 µM. The TGI [4] was 17.5 µM, the TGI [5] was > 56 µM and the TGI [6] was 17.2 µM. The TGI [7] was 21.8 µM, the TGI [8] was > 70 µM and the TGI [9] was 5.45 µM. For the same compound, the TGI [10] was 53.8 µM, the TGI [11] was > 83.1 µM and the TGI [12] was 3.82 µM. For the same compound, the TGI [13] was > 43.5 µM, the TGI [14] was 6.01 µM and the TGI [15] was 77.1 µM. The TGI [16] was 27.4 µM, the TGI [17] was > 91.6 µM and the TGI [18] was > 37.1 µM. For the same compound, the TGI [19] was 38.4 µM, the TGI [20] was 40.5 µM and the TGI [21] was > 100 µM. For the same compound, the TGI [22] was > 40.6 µM, the TGI [23] was > 100 µM and the TGI [24] was 5.81 µM. For the same compound, the TGI [25] was > 100 µM, the TGI [26] was > 72.5 µM and the TGI [27] was 25.6 µM. It also gave a TGI [28] of 19.2 µM, a TGI [29] of 46.8 µM and a TGI [30] of 19.9 µM. For the same compound, the TGI [31] was 11.8 µM, the TGI [32] was 14 µM and the TGI [33] was 18.3 µM. It also gave a TGI [34] of 8.9 µM, a TGI [35] of 31.6 µM and a TGI [36] of 47.9 µM. For the same compound, the TGI [37] was 71.4 µM, the TGI [38] was 18.4 µM and the TGI [39] was 48.2 µM. For the same compound, the TGI [40] was 77.3 µM, the TGI [41] was > 54.6 µM and the TGI [42] was 10.4 µM. It also gave a TGI [43] of 19.3 µM, a TGI [44] of 12.2 µM and a TGI [45] of 36.5 µM. For the same compound, the TGI [46] was 40 µM, the TGI [47] was 48.6 µM and the TGI [48] was > 100 µM. For the same compound, the TGI [49] was 13.3 µM, the TGI [50] was 28.7 µM and the TGI [51] was 56.4 µM. The TGI [52] was 15.3 µM, the TGI [53] was > 100 µM and the TGI [54] was 42.3 µM. It also gave a TGI [55] of 29 µM, a TGI [56] of 6.01 µM and a TGI [57] of 75 µM. For the same compound, the TGI [58] was 21.2 µM and the TGI [59] was 37 µM.
